# Experimental data reported in US7772246B2 (Pfizer Inc., priority 2007, dated 2010).
# Target: T1, b-Raf (Homo sapiens, UniProt P15056, V600E)
# T1 construct: endogenous in cells; host or cells: A2058 human melanoma cells
# Experiment: Raf cellular assay (phospho-Mek1/2 ELISA in A2058 cells)
# Format: cell-based
# Settings: Table 2; human melanoma A2058 cells (b-Raf mutation), Mek1/2 Ser217/221 phosphorylation, 1 hour incubation; read-out: pMEK IC50
# Method in brief: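 A2058 melanoma cells (B-Raf mutant), seeded overnight in 10% FBS DMEM, were exposed to compounds (11-point 1:3 series, duplicate) for 1 h at 37 °C. Lysates were captured on anti-Mek1-coated plates and Mek1/2 Ser217/221 phosphorylation was read by anti-phospho-Mek1/2 ELISA, HRP/TMB, 450 nm.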
# T1 sequence (P15056 whole entry V600E): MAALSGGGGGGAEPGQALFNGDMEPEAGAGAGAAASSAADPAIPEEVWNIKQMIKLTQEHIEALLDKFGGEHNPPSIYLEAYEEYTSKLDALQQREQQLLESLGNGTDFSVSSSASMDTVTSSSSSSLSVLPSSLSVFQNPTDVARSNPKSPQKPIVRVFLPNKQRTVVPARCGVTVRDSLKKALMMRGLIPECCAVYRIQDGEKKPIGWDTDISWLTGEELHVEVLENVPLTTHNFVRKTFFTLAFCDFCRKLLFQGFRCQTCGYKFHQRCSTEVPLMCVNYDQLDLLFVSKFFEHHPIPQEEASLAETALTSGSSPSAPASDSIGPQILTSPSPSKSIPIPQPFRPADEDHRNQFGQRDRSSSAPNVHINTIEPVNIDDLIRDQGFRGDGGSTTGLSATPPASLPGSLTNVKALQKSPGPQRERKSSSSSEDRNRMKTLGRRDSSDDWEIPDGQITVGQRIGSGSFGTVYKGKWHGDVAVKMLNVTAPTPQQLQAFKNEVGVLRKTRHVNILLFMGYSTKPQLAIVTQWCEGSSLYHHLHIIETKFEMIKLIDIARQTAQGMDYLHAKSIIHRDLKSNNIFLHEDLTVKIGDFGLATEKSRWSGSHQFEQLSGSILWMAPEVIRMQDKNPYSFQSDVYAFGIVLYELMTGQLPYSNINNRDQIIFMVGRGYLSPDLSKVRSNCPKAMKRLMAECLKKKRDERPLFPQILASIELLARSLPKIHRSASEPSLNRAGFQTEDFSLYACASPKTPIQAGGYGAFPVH
row,SMILES,IC50
1,"Cc1cn2cc(-c3nn(C(C)C)cc3-c3ccnc(NC[C@H](C)O)n3)cnc2n1 [Example B-8, (2S)-1-(4-(1-isopropyl-3-(2-methylimidazo[1,2-a]pyrimidin-6-yl)-1H-pyrazol-4-yl)pyrimidin-2-ylamino)propan-2-ol]",8.49 µM

# Same assay, conditions: Table 3; human melanoma A2058 cells (b-Raf mutation), Mek1/2 Ser217/221 phosphorylation, 1 hour incubation; read-out: pMEK IC50
row,SMILES,IC50
1,"CN1CCC(n2cc(-c3ccnc(NCC(F)F)n3)c(-c3cnc4[nH]cc(Cl)c4c3)n2)CC1 [Example B-114, 4-[3-(3-chloro-1H-pyrrolo[2,3-b]pyridin-5-yl)-1-(1-methylpiperidin-4-yl)-1H-pyrazol-4-yl]-N-(2,2-difluoroethyl)pyrimidin-2-amine]",0.00222 µM
2,"CC(C)n1cc(-c2ccnc(NCCC#N)n2)c(-c2cccnc2)n1 [Example B-53, 3-{[4-(1-isopropyl-3-pyridin-3-yl-1H-pyrazol-4-yl)pyrimidin-2-yl]amino}-propanenitrile]",1.32 µM
3,"CC1CNc2ncc(-c3nn(CC(F)F)cc3-c3ccnc(NC[C@H](C)O)n3)cc21 (stereo partly drawn) [Example B-87, (2S)-1-(4-(1-(2,2-difluoroethyl)-3-(3-methyl-2,3-dihydro-1H-pyrrolo[2,3-b]pyridin-5-yl)-1H-pyrazol-4-yl)pyrimidin-2-ylamino)propan-2-ol]",0.51 µM
4,"COc1nc(-c2nn(CC(F)F)cc2-c2ccnc(NC[C@H](C)O)n2)cnc1N [Example I-1, (2S)-1-({4-[3-(5-amino-6-methoxypyrazin-2-yl)-1-(2,2-difluoroethyl)-1H-pyrazol-4-yl]pyrimidin-2-yl}amino)propan-2-ol]",2.79 µM
5,"COc1cc(-c2nn(C(C)(C)C)cc2-c2ccnc(NCC(F)F)n2)cnc1N [Example B-54, 4-[3-(6-amino-5-methoxypyridin-3-yl)-1-tert-butyl-1H-pyrazol-4-yl]-N-(2,2-difluoroethyl)pyrimidin-2-amine]",0.00124 µM
6,"Cc1cc(-c2nn(CC(F)F)cc2-c2ccnc(NC[C@H](C)O)n2)cnc1N [Example B-18, (2S)-1-({4-[3-(6-amino-5-methylpyridin-3-yl)-1-(2,2-difluoroethyl)-1H-pyrazol-4-yl]pyrimidin-2-yl}amino)propan-2-ol]",0.58 µM
7,"COc1cc(-c2nn(-c3ccc(C#N)cc3)cc2-c2ccnc(NCCO)n2)cnc1N [Example B-80, 4-[3-(6-amino-5-methoxypyridin-3-yl)-4-{2-[(2-hydroxyethyl)-amino]pyrimidin-4-yl}-1H-pyrazol-1-yl]-benzonitrile]",0.0953 µM
8,"CC(C)(CO)n1cc(-c2ccnc(NCCC#N)n2)c(-c2cnc3[nH]ccc3c2)n1 [Example B-25, 3-({4-[1-(2-hydroxy-1,1-dimethylethyl)-3-(1H-pyrrolo[2,3-b]pyridin-5-yl)-1H-pyrazol-4-yl]pyrimidin-2-yl}amino)propanenitrile]",0.00598 µM
9,"COc1cncc(-c2nn(C(C)(C)CO)cc2-c2ccnc(NCCC#N)n2)c1 [Example B-49, 3-(4-(1-(1-hydroxy-2-methylpropan-2-yl)-3-(5-methoxypyridin-3-yl)-1H-pyrazol-4-yl)pyrimidin-2-ylamino)propanenitrile]",0.0224 µM
10,"C[C@H](O)CNc1nccc(-c2cn(CC3(C)COC3)nc2-c2cnc3[nH]cc(Cl)c3c2)n1 [Example B-98, (2S)-1-[(4-{3-(3-chloro-1H-pyrrolo[2,3-b]pyridin-5-yl)-1-[(3-methyloxetan-3-yl)methyl]-1H-pyrazol-4-yl}pyrimidin-2-yl)amino]propan-2-ol]",0.146 µM
11,"Cc1c[nH]c2ncc(-c3nn(CC(F)F)cc3-c3ccnc(NCCO)n3)cc12 [Example B-105, 2-({4-[1-(2,2-difluoroethyl)-3-(3-methyl-1H-pyrrolo[2,3-b]pyridin-5-yl)-1H-pyrazol-4-yl]pyrimidin-2-yl}amino)ethanol]",0.00946 µM
12,"N#CCCNc1nccc(-c2cn(CC(F)F)nc2-c2cnc3c(c2)CC(=O)N3)n1 [Example B-95, 3-(4-(1-(2,2-difluoroethyl)-3-(2-oxo-2,3-dihydro-1H-pyrrolo[2,3-b]pyridin-5-yl)-1H-pyrazol-4-yl)-pyrimidin-2-ylamino)propanenitrile]",1.67 µM
13,"CC(C)(C)n1cc(-c2ccnc(NCCC#N)n2)c(-c2cnc3[nH]ccc3c2)n1 [Example B-74, 3-({4-[1-tert-butyl-3-(1H-pyrrolo[2,3-b]pyridin-5-yl)-1H-pyrazol-4-yl]pyrimidin-2-yl}amino)-propanenitrile]",0.00533 µM
14,"CC(C)n1cc(-c2ccnc(N)c2)c(-c2cnc3[nH]ccc3c2)n1 [Example H-2, 4-(1-isopropyl-3-(1H-pyrrolo[2,3-b]pyridin-5-yl)-1H-pyrazol-4-yl)pyridin-2-amine]",1.02 µM
15,"COc1cc(-c2nn(C)cc2-c2ccnc(NCCC#N)n2)cnc1N [Example G-2, 3-({4-[3-(6-amino-5-methoxypyridin-3-yl)-1-methyl-1H-pyrazol-4-yl]pyrimidin-2-yl}amino)propanenitrile]",0.00524 µM
16,"CC(C)n1cc(-c2ccnc(N)n2)c(-c2cnc3[nH]cc(Cl)c3c2)n1 [Example B-60, 4-[3-(3-chloro-1H-pyrrolo[2,3-b]pyridin-5-yl)-1-isopropyl-1H-pyrazol-4-yl]pyrimidin-2-amine]",0.044 µM

row,SMILES,IC50
1,"C[C@H](O)CNc1nccc(-c2cn([C@H]3C[C@H](F)C3)nc2-c2cnc3[nH]cc(Cl)c3c2)n1 [Example B-86, (S)-1-(4-(3-(3-chloro-1H-pyrrolo[2,3-b]pyridin-5-yl)-1-((1r,3r)-3-fluorocyclobutyl)-1H-pyrazol-4-yl)pyrimidin-2-ylamino)propan-2-ol]",0.0306 µM
2,"FC(F)CNc1nccc(-c2cn(C3CCNCC3)nc2-c2cnc3[nH]cc(Cl)c3c2)n1 [Example B-77, 4-[3-(3-chloro-1H-pyrrolo[2,3-b]pyridin-5-yl)-1-piperidin-4-yl-1H-pyrazol-4-yl]-N-(2,2-difluoroethyl)pyrimidin-2-amine]",0.0304 µM
3,"C[C@H](O)CNc1nccc(-c2cn(C3CCOCC3)nc2-c2cnc3[nH]cc(Cl)c3c2)n1 [Example B-76, (2S)-1-({4-[3-(3-chloro-1H-pyrrolo[2,3-b]pyridin-5-yl)-1-(tetrahydro-2H-pyran-4-yl)-1H-pyrazol-4-yl]pyrimidin-2-yl}amino)propan-2-ol]",0.012 µM
4,"COc1cc(-c2nn(C3CC3)cc2-c2ccnc(NCCC#N)n2)cnc1N [Example B-57, 3-({4-[3-(6-amino-5-methoxypyridin-3-yl)-1-cyclopropyl-1H-pyrazol-4-yl]pyrimidin-2-yl}amino)-propanenitrile]",0.00295 µM
5,"COCCCn1cc(-c2ccnc(NC[C@H](C)O)n2)c(-c2cnc3[nH]cc(Cl)c3c2)n1 [Example B-110, (2S)-1-({4-[3-(3-chloro-1H-pyrrolo[2,3-b]pyridin-5-yl)-1-(3-methoxypropyl)-1H-pyrazol-4-yl]pyrimidin-2-yl}amino)propan-2-ol]",0.144 µM
6,"C[C@H](O)CNc1nccc(-c2cn(CC(F)F)nc2-c2cnc3c(c2)[C@@H](C)CN3)n1 [Example B-92, (S)-1-(4-(1-(2,2-difluoroethyl)-3-((R)-3-methyl-2,3-dihydro-1H-pyrrolo[2,3-b]pyridin-5-yl)-1H-pyrazol-4-yl)pyrimidin-2-ylamino)propan-2-ol]",0.28 µM
7,"COc1ccc(Nc2nccc(-c3cn(CC(F)F)nc3-c3cnc4[nH]ccc4c3)n2)cn1 [Example B-81, 4-[1-(2,2-difluoroethyl)-3-(1H-pyrrolo[2,3-b]pyridin-5-yl)-1H-pyrazol-4-yl]-N-(6-methoxypyridin-3-yl)pyrimidin-2-amine]",0.0715 µM
8,"CC(C)n1cc(-c2ccnc(NC[C@H](C)O)n2)c(-c2cnc(N)nc2)n1 [Example B-42, (2S)-1-({4-[3-(2-aminopyrimidin-5-yl)-1-isopropyl-1H-pyrazol-4-yl]pyrimidin-2-yl}amino)propan-2-ol]",5.65 µM
9,"CC(C)(CO)n1cc(-c2ccnc(N)n2)c(-c2cnc3[nH]cc(Cl)c3c2)n1 [Example E-6, 2-[4-(2-amino-pyrimidin-4-yl)-3-(3-chloro-1H-pyrrolo[2,3-b]pyridin-5-yl)-1H-pyrazol-1-yl]-2-methylpropan-1-ol]",0.00898 µM
10,"Cn1ccc2ncc(-c3nn(C(C)(C)CO)cc3-c3ccnc(NCCC#N)n3)cc21 [Example B-37, 3-({4-[1-(2-hydroxy-1,1-dimethylethyl)-3-(1-methyl-1H-pyrrolo[3,2-b]pyridin-6-yl)-1H-pyrazol-4-yl]pyrimidin-2-yl}amino)propanenitrile]",0.044 µM
11,"CC(C)n1cc(-c2ccnc3[nH]ccc23)c(-c2cnc3[nH]ccc3c2)n1 [Example H-3, 4-(1-isopropyl-3-(1H-pyrrolo[2,3-b]pyridin-5-yl)-1H-pyrazol-4-yl)-1H-pyrrolo[2,3-b]pyridine]",0.427 µM
12,"CN1CCC(n2cc(-c3ccncn3)c(-c3cnc4[nH]cc(Cl)c4c3)n2)CC1 [Example F-2, 3-chloro-5-[1-(1-methylpiperidin-4-yl)-4-pyrimidin-4-yl-1H-pyrazol-3-yl]-1H-pyrrolo[2,3-b]pyridine]",0.196 µM
13,"CC(C)(C#N)n1cc(-c2ccnc(NCCO)n2)c(-c2cnc3[nH]cc(Cl)c3c2)n1 [Example G-5, 2-[3-(3-chloro-1H-pyrollo[2,3-b]pyridin-5-yl)-4-{2-[(2-hydroxyethyl)amino]pyrimidin-4-yl}-1H-pyrazol-1-yl]-2-methylpropanenitrile]",0.0199 µM
14,"COc1cc(-c2nn(C3CCOCC3)cc2-c2ccnc(NCC(F)F)n2)cnc1N [Example B-70, 4-[3-(6-amino-5-methoxypyridin-3-yl)-1-(tetrahydro-2H-pyran-4-yl)-1H-pyrazol-4-yl]-N-(2,2-difluoroethyl)-pyrimidin-2-amine]",0.00233 µM
15,"C[C@H](O)CNc1nccc(-c2cn(CC(F)F)nc2-c2cnc3ccn(C)c3c2)n1 [Example B-35, (2S)-1-({4-[1-(2,2-difluoroethyl)-3-(1-methyl-1H-pyrrolo[3,2-b]pyridin-6-yl)-1H-pyrazol-4-yl]pyrimidin-2-yl}amino)propan-2-ol]",0.193 µM
